Measured values published in patent publication US20230159496A1, “COMPOUNDS AND METHODS FOR MODULATING SPLICING” (REMIX THERAPEUTICS INC., priority 2020, published 2023).
pIC50: −log10 of the molar value. Like-named read-outs stand apart in the source and are kept apart here.

Tests used:
Format in all cases: cell-based
Target C CJ mRNA = test: Gene panel canonical junction qPCR assay, Target C; settings: decrease in CJ mRNA levels, gene panel; read-out: Target C IC50
How it was run: (§1)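 A673 or K562 cells were treated for 24 h at 37 °C with an 11-point 3-fold dilution, top dose 10 uM, DMSO ≤0.25%. Canonical junction mRNA in lysates was quantified by one-step RT-qPCR and normalized to GAPDH, GUSB or PPIA.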

HTT CJ mRNA = test: Gene panel canonical junction qPCR assay, HTT; settings: decrease in CJ mRNA levels, gene panel; read-out: HTT IC50
How it was run: as §1

SMN2 CJ mRNA = test: Gene panel canonical junction qPCR assay, SMN2; settings: decrease in CJ mRNA levels, gene panel; read-out: SMN2 IC50
How it was run: as §1

HTT mRNA = test: Splicing assay (RT-qPCR) monitoring HTT canonical junction (CJ) and alternative junction (AJ) mRNA isoforms; settings: A673 or K562 cells, 24 h treatment, top dose 10 uM
How it was run: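 A673 or K562 cells treated 24 h at 37 °C with an 11-point 3-fold dilution (top 10 uM final, DMSO ≤0.25%). Lysates assayed by one-step RT-qPCR for HTT CJ and AJ isoforms, normalized to GAPDH, GUSB (K562) or PPIA (A673).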

[1] = decrease in CJ mRNA (50% response), read-out: HTT CJ AC50
[2] = increase in AJ mRNA (50% response), read-out: HTT AJ AC50

SMILES | pIC50 (Target C CJ mRNA) | pIC50 (HTT CJ mRNA) | pIC50 (SMN2 CJ mRNA) | AC50 (HTT mRNA; [1]) [nM] | AC50 (HTT mRNA; [2]) [nM]
Cc1cn2cc(-n3cnc4cc(N5CCNCC5)ccc4c3=O)cc(F)c2n1 [Compound 228, 3-(8-fluoro-2-methylimidazo[1,2-a]pyridin-6-yl)-7-(piperazin-1-yl)quinazolin-4(3H)-one] | 6.00 to 7.00 | 6.00 to 7.00 | 6.00 to 7.00 | 100 to 1000 | 100 to 1000
Cc1cn2cc(-n3cnc4cc(N5CCN(C)CC5)ccc4c3=O)cc(F)c2n1 [Compound 229, 3-(8-fluoro-2-methylimidazo[1,2-a]pyridin-6-yl)-7-(4-methylpiperazin-1-yl)quinazolin-4(3H)-one] | < 5.00 | < 5.00 | < 5.00 | > 10000 | > 10000
Cc1cn2cc(-c3cc(F)c4c(=O)n(C5CCNCC5)cnc4c3)cc(F)c2n1 [Compound 230, 5-fluoro-7-{8-fluoro-2-methylimidazo [1,2-a]pyridin-6-yl}-3-(piperidin-4-yl)quinazolin-4-one] | > 7.00 | > 7.00 | > 7.00 | < 100 | < 100
Cc1cn2cc(-c3cc(F)c4c(=O)n(C5CCN(C)CC5)cnc4c3)cc(F)c2n1 [Compound 231, 5-fluoro-7-(8-fluoro-2-methylimidazo[1,2-a]pyridin-6-yl)-3-(1-methylpiperidin-4-yl)quinazolin-4(3H)-one] | 5.00 to 6.00 | 6.00 to 7.00 | > 7.00 | 100 to 1000 | 100 to 1000
Cc1cc(-c2cc(F)c3c(=O)n(C4CCNCC4)cnc3c2)cc2cn(C)nc12 [Compound 232] | 6.00 to 7.00 | > 7.00 | > 7.00 | < 100 | < 100
Cc1cc(-c2cc(F)c3c(=O)n(C4CCN(C)CC4)cnc3c2)cc2cn(C)nc12 [Compound 233, 7-(2,7-dimethyl-2H-indazol-5-yl)-5-fluoro-3-(1-methylpiperidin-4-yl)quinazolin-4(3H)-one] | 5.00 to 6.00 | 6.00 to 7.00 | > 7.00 | 100 to 1000 | 100 to 1000
Cc1cc(-c2ccc3c(=O)n(C4CCNCC4)cnc3c2F)cc2cn(C)nc12 [Compound 234, 7-(2,7-dimethyl-2H-indazol-5-yl)-8-fluoro-3-(piperidin-4-yl)quinazolin-4(3H)-one] | < 5.00 | 5.00 to 6.00 | > 7.00 | 1000 to 10000 | 1000 to 10000
Cc1cc(-c2ccc3c(=O)n(C4CCN(C)CC4)cnc3c2F)cc2cn(C)nc12 [Compound 235, 7-(2,7-dimethyl-2H-indazol-5-yl)-8-fluoro-3-(1-methylpiperidin-4-yl)quinazolin-4(3H)-one] | < 5.00 | < 5.00 | 6.00 to 7.00 | > 10000 | > 10000
Cc1cn2cc(-c3ccc4c(=O)n(C5CCNC6(CC6)C5)cnc4c3)cc(F)c2n1 (centres unmarked) [Compound 236, 7-(8-fluoro-2-methylimidazo[1,2-a]pyridin-6-yl)-3-(4-azaspiro[2.5]octan-7-yl)quinazolin-4(3H)-one] | 6.00 to 7.00 | 6.00 to 7.00 | > 7.00 | 100 to 1000 | 100 to 1000
Cc1cn2cc(-c3ccc4c(=O)n(C5CCNC(C)(C)C5)cnc4c3)cc(F)c2n1 (centres unmarked) [Compound 237, 3-(2,2-dimethylpiperidin-4-yl)-7-(8-fluoro-2-methylimidazo[1,2-a]pyridin-6-yl)quinazolin-4(3H)-one] | 5.00 to 6.00 | 6.00 to 7.00 | > 7.00 | 100 to 1000 | 100 to 1000
Cc1cn2cc(-c3ccc4nc(NC5CCNCC5)[nH]c(=O)c4c3)cc(F)c2n1 [Compound 238] | < 5.00 | < 5.00 | < 5.00 | > 10000 | > 10000
Cc1cc(-c2nc3ccc(N(C)C4CCN(C)CC4)cc3c(=O)[nH]2)cc2cn(C)nc12 [Compound 239, 2-(2,7-dimethyl-2H-indazol-5-yl)-6-(methyl(1-methylpiperidin-4-yl)amino)quinazolin-4(3H)-one] | < 5.00 | < 5.00 | 5.00 to 6.00 | > 10000 | > 10000
Cc1cn2nc(-n3cnc4cc(N5CCNCC5)ccc4c3=O)cc(C)c2n1 [Compound 241, 3-(2,8-dimethylimidazo[1,2-b]pyridazin-6-yl)-7-(piperazin-1-yl)quinazolin-4(3H)-one] | 5.00 to 6.00 | 5.00 to 6.00 | 5.00 to 6.00 | 1000 to 10000 | 1000 to 10000
Cc1cn2nc(-c3cc(F)c4c(=O)n(C5CCN(C)CC5)cnc4c3)cc(C)c2n1 [Compound 242, 7-(2,8-dimethylimidazo[1,2-b]pyridazin-6-yl)-5-fluoro-3-(1-methylpiperidin-4-yl)quinazolin-4(3H)-one] | 6.00 to 7.00 | > 7.00 | > 7.00 | < 100 | < 100
Cc1cn2nc(-c3cc(F)c4c(=O)n(C5CCNCC5)cnc4c3)cc(C)c2n1 [Compound 243, 7-(2,8-dimethylimidazo[1,2-b]pyridazin-6-yl)-5-fluoro-3-(piperidin-4-yl)quinazolin-4(3H)-one] | > 7.00 | > 7.00 | > 7.00 | < 100 | < 100
Cc1cn2cc(-c3ccc4c(=O)n(C5CCNCC5)cnc4c3)c(C)cc2n1 [Compound 244] | < 5.00 | < 5.00 | 6.00 to 7.00 | > 10000 | > 10000
Cc1nc2c(F)cc(-c3ccc4c(=O)n(C5CCNCC5)cnc4c3)cc2o1 [Compound 245] | 6.00 to 7.00 | 6.00 to 7.00 | > 7.00 | 100 to 1000 | 100 to 1000
Cc1cn2cc(-c3ccc4c(=O)n(C5CCN(C)CC5)cnc4c3)c(C)cc2n1 [Compound 246] | 5.00 to 6.00 | 5.00 to 6.00 | 5.00 to 6.00 | 1000 to 10000 | 1000 to 10000

Continued, in another order:

pIC50 (Target C CJ mRNA) | pIC50 (HTT CJ mRNA) | pIC50 (SMN2 CJ mRNA) | SMILES | AC50 (HTT mRNA; [1]) [nM] | AC50 (HTT mRNA; [2]) [nM]
5.00 to 6.00 | 5.00 to 6.00 | > 7.00 | Cc1cn2cc(-c3ccc4c(c3)CCN(C3CCNCC3)C4=O)cc(F)c2n1 [Compound 247, 6-[8-fluoro-2-methylimidazo[1,2-a]pyridin-6-yl]-2-(piperidin-4-yl)-3,4-dihydroisoquinolin-1-one] | 1000 to 10000 | 1000 to 10000
6.00 to 7.00 | > 7.00 | > 7.00 | Cc1cn2cc(-c3ccc4c(=O)n(C5CCNCC5)ncc4c3)cc(F)c2n1 [Compound 248, 6-[8-fluoro-2-methylimidazo[1,2-a]pyridin-6-yl]-2-(piperidin-4-yl)phthalazin-1-one] | < 100 | 100 to 1000
5.00 to 6.00 | 5.00 to 6.00 | 5.00 to 6.00 | Cn1cc2cc(-c3ccc4c(=O)n(C5CCNCC5)ncc4c3)cc(F)c2n1 [Compound 249] | 1000 to 10000 | 1000 to 10000
6.00 to 7.00 | > 7.00 | > 7.00 | Cc1nc2c(F)cc(-c3ccc4c(=O)n(C5CCNCC5)ncc4c3)cc2o1 [Compound 250] | < 100 | < 100
6.00 to 7.00 | 6.00 to 7.00 | > 7.00 | Cc1cc(-c2ccc3c(=O)n(C4CCNCC4)ncc3c2)cc2cn(C)nc12 [Compound 251] | 100 to 1000 | 100 to 1000
< 5.00 | < 5.00 | 6.00 to 7.00 | Cc1cn2cc(-c3ccc4c(c3)CCN(C3CCNCC3)C4=O)cc(C(F)(F)F)c2n1 [Compound 252, 6-[2-methyl-8-(trifluoromethyl)imidazo[1,2-a]pyridin-6-yl]-2-(piperidin-4-yl)-3,4-dihydroisoquinolin-1-one] | > 10000 | > 10000
5.00 to 6.00 | 5.00 to 6.00 | 6.00 to 7.00 | Cc1nc2c(F)cc(-c3ccc4c(=O)n(C5CCNCC5)ncc4c3)cc2s1 [Compound 253] | 1000 to 10000 | 1000 to 10000
5.00 to 6.00 | 5.00 to 6.00 | 5.00 to 6.00 | Cc1cn2cc(-c3ccc4c(=O)n(C5CCNCC5)ncc4c3)c(C)cc2n1 [Compound 254] | 1000 to 10000 | 1000 to 10000
< 5.00 | 5.00 to 6.00 | 6.00 to 7.00 | Cc1cn2cc(-c3ccc4c(=O)n(C5CCNCC5)ncc4c3)ncc2n1 [Compound 255] | 1000 to 10000 | 1000 to 10000
< 5.00 | 6.00 to 7.00 | > 7.00 | Cc1cn2cc(-c3ccc4c(=O)n(C5CCNCC5)ncc4c3)cc(Cl)c2n1 [Compound 256] | 100 to 1000 | 100 to 1000
5.00 to 6.00 | 6.00 to 7.00 | > 7.00 | Cc1cn2cc(-c3ccc4c(=O)n(C5CCNCC5)ncc4c3)cc(C)c2n1 [Compound 257] | 100 to 1000 | 100 to 1000
6.00 to 7.00 | 6.00 to 7.00 | 6.00 to 7.00 | Cc1cn2nc(-c3ccc4c(=O)n(C5CCNCC5)ncc4c3)nc2c(C)n1 [Compound 259] | 100 to 1000 | 100 to 1000
5.00 to 6.00 | 6.00 to 7.00 | 6.00 to 7.00 | Cc1cn2nc(-c3ccc4c(=O)n(C5CCNCC5)ncc4c3)cc2c(C)n1 [Compound 260] | 100 to 1000 | 100 to 1000
